In brackets after ≈: the same amount, converted by molar mass.
Assays:
[1] = Selectivity index, ratio of CC50 for human MT4 cells to EC50 for HIV1 3B infected in MT4 cells; assay type: toxicity, cell-based; details: read-out: Ratio CC50/EC50
[2] = system: Vibrio cholerae; test: Antimicrobial activity against Vibrio cholerae 01 after 18 to 20 hr by agar dilution method; assay type: functional; details: 1
[3] = system: Priestia megaterium; test: Antimicrobial activity against Bacillus megaterium after 18 to 20 hr by agar dilution method; assay type: functional
[4] = system: Enterobacter; test: Antimicrobial activity against Enterobacter after 18 to 20 hr by agar dilution method; assay type: functional
[5] = system: Citrobacter freundii; test: Antimicrobial activity against Citrobacter freundii after 18 to 20 hr by agar dilution method; assay type: functional
[6] = system: Salmonella enteritidis; test: Antimicrobial activity against Salmonella enterica subsp. enterica serovar Enteritidis after 18 to 20 hr by agar dilution method; assay type: functional
[7] = system: Salmonella typhimurium; test: Antimicrobial activity against Salmonella enterica subsp. enterica serovar Typhimurium after 18 to 20 hr by agar dilution method; assay type: functional
[8] = system: Proteus mirabilis; test: Antimicrobial activity against Proteus mirabilis after 18 to 20 hr by agar dilution method; assay type: functional
[9] = system: Proteus vulgaris; test: Antimicrobial activity against Proteus vulgaris after 18 to 20 hr by agar dilution method; assay type: functional
[10] = system: Edwardsiella tarda; test: Antimicrobial activity against Edwardsiella tarda after 18 to 20 hr by agar dilution method; assay type: functional
[11] = system: Escherichia coli; test: Antimicrobial activity against Escherichia coli NCTC 10418 after 18 to 20 hr by agar dilution method; assay type: functional
[12] = system: Salmonella typhi; test: Antimicrobial activity against Salmonella enterica subsp. enterica serovar Typhi after 18 to 20 hr by agar dilution method; assay type: functional
[13] = system: Salmonella paratyphi; test: Antimicrobial activity against Salmonella enterica subsp. enterica serovar Paratyphi A after 18 to 20 hr by agar dilution method; assay type: functional
[14] = system: Vibrio parahaemolyticus; test: Antimicrobial activity against Vibrio parahaemolyticus after 18 to 20 hr by agar dilution method; assay type: functional
[15] = system: Vibrio cholerae; test: Antimicrobial activity against Vibrio cholerae 0139 after 18 to 20 hr by agar dilution method; assay type: functional; details: 139
[16] = system: Vibrio fluvialis; test: Antimicrobial activity against Vibrio fluvialis after 18 to 20 hr by agar dilution method; assay type: functional
[17] = system: Vibrio mimicus; test: Antimicrobial activity against Vibrio mimicus after 18 to 20 hr by agar dilution method; assay type: functional
[18] = system: Pseudomonas aeruginosa; test: Antimicrobial activity against Pseudomonas aeruginosa after 18 to 20 hr by agar dilution method; assay type: functional
[19] = system: Staphylococcus aureus; test: Antimicrobial activity against Staphylococcus aureus after 18 to 20 hr by agar dilution method; assay type: functional
[20] = system: Morganella morganii; test: Antimicrobial activity against Morganella morganii after 18 to 20 hr by agar dilution method; assay type: functional
[21] = system: Shigella boydii; test: Antimicrobial activity against Shigella boydii after 18 to 20 hr by agar dilution method; assay type: functional
[22] = system: Plesiomonas; test: Antimicrobial activity against Plesiomonas after 18 to 20 hr by agar dilution method; assay type: functional
[23] = system: Shigella sonnei; test: Antimicrobial activity against Shigella sonnei after 18 to 20 hr by agar dilution method; assay type: functional
[24] = system: Klebsiella pneumoniae; test: Antimicrobial activity against Klebsiella pneumoniae after 18 to 20 hr by agar dilution method; assay type: functional
[25] = system: Klebsiella pneumoniae; test: Antimicrobial activity against Klebsiella pneumoniae subsp. ozaenae after 18 to 20 hr by agar dilution method; assay type: functional
[26] = system: Mycobacterium tuberculosis; test: Antimycobacterial activity against Mycobacterium tuberculosis H37Rv ATCC 27294 at 6.25 ug/ml by MABA; assay type: functional
[27] = Cytotoxicity against Homo sapiens (human) HuH7 cells assessed as cell growth at 50 ug/ml after 3 days by Neutral red assay; assay type: cell-based, Huh-7; details: read-out: Activity
[28] = Cytotoxicity against Homo sapiens (human) CEM cells after 5 days by MTT assay; assay type: cell-based; details: CEM cells (CCRF-CEM)
[29] = system: Human immunodeficiency virus 1; test: Antiviral activity against Human immunodeficiency virus 1 IIIB infected CEM cells assessed as protection against viral infection after 6 days by XTT assay; assay type: functional, CCRF-CEM; set-up: concentration or dose not given beside the values
[30] = system: Human immunodeficiency virus 1; test: Antiviral activity against Human immunodeficiency virus 1 IIIB infected CEM cells assessed as inhibition of virus-induced cytopathicity after 6 days by XTT assay; assay type: functional, organism-based; details: CCRF-CEM, 144 h
[31] = Cytotoxicity against Homo sapiens (human) MT4 cells after 5 days by MTT assay; assay type: cell-based
[32] = system: Human immunodeficiency virus 1; test: Antiviral activity against Human immunodeficiency virus 1 IIIB infected MT4 cells assessed as inhibition of virus-induced cytopathicity after 5 days by MTT assay; assay type: functional, organism-based; details: MT4, 120 h
[33] = system: Hepatitis C virus; test: Antiviral activity against Hepatitis C virus BM4-5 infected in Huh7 cells assessed as inhibition of viral RNA replication by phosphor screening method; assay type: functional, Hepacivirus hominis, Huh-7
[34] = system: Human immunodeficiency virus 1; test: Antiviral activity against Human immunodeficiency virus 1 IIIB infected MT4 cells assessed as protection against viral infection after 5 days by MTT assay; assay type: functional; set-up: concentration or dose not given beside the values
[35] = system: Escherichia coli; test: Antibacterial activity against Escherichia coli NCTC 10418 infected in po dosed CF mouse compound administered 1 hr prior and 4 hr post infection; assay type: functional; details: NCTC 10418, po

| SMILES | MIC [2] | MIC [3] | MIC [4] | MIC [5] | MIC [6] | MIC [7] | MIC [8] | MIC [9] | MIC [10] | MIC [12] | MIC [13] | MIC [14] | MIC [15] | MIC [16] | MIC [17] | MIC [18] | MIC [19] | MIC [20] | MIC [21] | MIC [22] | also measured |
| --- | --- | --- | --- | --- | --- | --- | --- | --- | --- | --- | --- | --- | --- | --- | --- | --- | --- | --- | --- | --- | --- |
| CCN(CC)CN1C(=O)/C(=N\c2ncc(Cc3cc(OC)c(OC)c(OC)c3)c(N)n2)c2cc(Cl)ccc21 | 1.22 µg/mL (≈ 2.26 µM) | 1250 µg/mL (≈ 2320 µM) | 312 µg/mL (≈ 580 µM) | 312 µg/mL (≈ 580 µM) | 625 µg/mL (≈ 1160 µM) | 312 µg/mL (≈ 580 µM) | 312 µg/mL (≈ 580 µM) | 625 µg/mL (≈ 1160 µM) | 1250 µg/mL (≈ 2320 µM) | 1250 µg/mL (≈ 2320 µM) | 78.1 µg/mL (≈ 145 µM) | 39.1 µg/mL (≈ 72.5 µM) | 312 µg/mL (≈ 580 µM) | 625 µg/mL (≈ 1160 µM) | 9.76 µg/mL (≈ 18.1 µM) | 1250 µg/mL (≈ 2320 µM) | 625 µg/mL (≈ 1160 µM) | 625 µg/mL (≈ 1160 µM) | 39.1 µg/mL (≈ 72.5 µM) | 19.5 µg/mL (≈ 36.2 µM) | selectivity ratio [1]: 3; MIC [11]: 1250 µg/mL (≈ 2320 µM); MIC [23]: 1250 µg/mL (≈ 2320 µM); MIC [24]: 1250 µg/mL (≈ 2320 µM); MIC [25]: 625 µg/mL (≈ 1160 µM); inhibition at 6.25 µg/mL [26]: 53%; viability at 72 h, 50 ug/ml [27]: 72%; CC50 at 120 h [28]: 98.4 µg/mL (≈ 183 µM); Activity [29]: 20.69%; EC50 [30]: > 98.4 µg/mL; CC50 at 120 h [31]: 79.1 µg/mL (≈ 147 µM); EC50 [32]: 23.6 µg/mL (≈ 43.8 µM); inhibition (INH) [33]: 67%; Activity [34]: 64.1% |
| COc1cc(Cc2cnc(/N=C3\C(=O)N(CN4CCN(c5cccc(Cl)c5)CC4)c4ccc(Cl)cc43)nc2N)cc(OC)c1OC | 0.61 µg/mL (≈ 0.921 µM) | 1250 µg/mL (≈ 1890 µM) | 625 µg/mL (≈ 943 µM) | 1250 µg/mL (≈ 1890 µM) | 1250 µg/mL (≈ 1890 µM) | 625 µg/mL (≈ 943 µM) | 1250 µg/mL (≈ 1890 µM) | 1250 µg/mL (≈ 1890 µM) | 1250 µg/mL (≈ 1890 µM) | 1250 µg/mL (≈ 1890 µM) | 1250 µg/mL (≈ 1890 µM) | 1.22 µg/mL (≈ 1.84 µM) | 625 µg/mL (≈ 943 µM) | 625 µg/mL (≈ 943 µM) | 9.76 µg/mL (≈ 14.7 µM) | 156 µg/mL (≈ 236 µM) | 1250 µg/mL (≈ 1890 µM) | 1250 µg/mL (≈ 1890 µM) | 19.5 µg/mL (≈ 29.5 µM) | 19.5 µg/mL (≈ 29.5 µM) | MIC [11]: 1250 µg/mL (≈ 1890 µM); MIC [23]: 1250 µg/mL (≈ 1890 µM); MIC [24]: 1250 µg/mL (≈ 1890 µM); MIC [25]: 1250 µg/mL (≈ 1890 µM); inhibition at 6.25 µg/mL [26]: 44%; viability at 72 h, 50 ug/ml [27]: 67%; CC50 at 120 h [28]: 34.4 µg/mL (≈ 51.9 µM); Activity [29]: 23%; EC50 [30]: > 34.4 µg/mL; CC50 at 120 h [31]: 39.2 µg/mL (≈ 59.2 µM); EC50 [32]: > 39.2 µg/mL; inhibition (INH) [33]: 96%; Activity [34]: 20.9% |
| O=C(O)c1cn(C2CC2)c2cc(N3CCNCC3)c(F)cc2c1=O [CIPROFLOXACIN] | 0.04 µg/mL (≈ 0.121 µM) | 0.04 µg/mL (≈ 0.121 µM) | 0.04 µg/mL (≈ 0.121 µM) | 0.04 µg/mL (≈ 0.121 µM) | 0.04 µg/mL (≈ 0.121 µM) | 0.04 µg/mL (≈ 0.121 µM) | 0.04 µg/mL (≈ 0.121 µM) | 0.04 µg/mL (≈ 0.121 µM) | 0.04 µg/mL (≈ 0.121 µM) | 0.04 µg/mL (≈ 0.121 µM) | 0.04 µg/mL (≈ 0.121 µM) | 0.04 µg/mL (≈ 0.121 µM) | 0.04 µg/mL (≈ 0.121 µM) | 0.04 µg/mL (≈ 0.121 µM) | 0.04 µg/mL (≈ 0.121 µM) | 0.15 µg/mL (≈ 0.453 µM) | 0.04 µg/mL (≈ 0.121 µM) | 0.04 µg/mL (≈ 0.121 µM) | 0.04 µg/mL (≈ 0.121 µM) | 0.04 µg/mL (≈ 0.121 µM) | ED50 [35]: 1.25 mg/kg; MIC [23]: 0.04 µg/mL (≈ 0.121 µM); MIC [24]: 0.04 µg/mL (≈ 0.121 µM); MIC [25]: 0.15 µg/mL (≈ 0.453 µM) |
| CCn1cc(C(=O)O)c(=O)c2cc(F)c(N3CCNC(C)C3)c(F)c21 (stereo unspecified) [LOMEFLOXACIN] | 0.02 µg/mL (≈ 0.0569 µM) | 19.5 µg/mL (≈ 55.6 µM) | 19.5 µg/mL (≈ 55.6 µM) | 19.5 µg/mL (≈ 55.6 µM) | 19.5 µg/mL (≈ 55.6 µM) | 4.88 µg/mL (≈ 13.9 µM) | 2.44 µg/mL (≈ 6.94 µM) | 0.61 µg/mL (≈ 1.74 µM) | 4.88 µg/mL (≈ 13.9 µM) | 9.77 µg/mL (≈ 27.8 µM) | 0.61 µg/mL (≈ 1.74 µM) | 39.1 µg/mL (≈ 111 µM) | 2.44 µg/mL (≈ 6.94 µM) | 1.22 µg/mL (≈ 3.47 µM) | 1.22 µg/mL (≈ 3.47 µM) | 4.88 µg/mL (≈ 13.9 µM) | 0.61 µg/mL (≈ 1.74 µM) | 1.22 µg/mL (≈ 3.47 µM) | 9.77 µg/mL (≈ 27.8 µM) | 1.22 µg/mL (≈ 3.47 µM) | ED50 [35]: 1.87 mg/kg; MIC [11]: 0.61 µg/mL (≈ 1.74 µM); MIC [23]: 39.1 µg/mL (≈ 111 µM); MIC [24]: 2.44 µg/mL (≈ 6.94 µM); MIC [25]: 1.22 µg/mL (≈ 3.47 µM) |

Reference: ChEMBL document CHEMBL3045426, “Synthesis, Antiviral and Antibacterial Activities of Isatin Mannich Bases” (Med Chem Res, 2005)
